In patent US20210115104A1, “AMYLIN ANALOGUES” (Zealand Pharma A/S, priority 2015, published 2021):
*1 amine or outer side, *2 acyl side, *3 side chain or, on linkers, in order; H or OH if unused. Where a SMILES comes first, the peptide text is derived from it. Bridges are numbered along the chain shown (N, C = ends). [ ]: non-standard residue; d: D form. The star is where a group is joined. C20 diacid = O=C(O)CCCCCCCCCCCCCCCCCCC(=O)*; γGlu = O=C(O)[C@H](CCC(=O)[*:2])N[*:1]; Hyp = O=C(O)[C@@H]1C[C@@H](O)CN1; NMeI = CC[C@H](C)[C@H](NC)C(=O)O; Sar = CNCC(=O)O

How the values were obtained:
[1] = biological target: T1, human calcitonin receptor (hCTR2) (Homo sapiens, UniProt P30988); assay: hCTR2 cAMP assay (AlphaScreen) in COS7 cells; type: cell-based; details: cAMP induction, COS7 cells expressing hCTR2; Table 1; read-out: hCTR2 EC50
T1 construct: expressed in transfected cells
T1 sequence (P30988 25-474): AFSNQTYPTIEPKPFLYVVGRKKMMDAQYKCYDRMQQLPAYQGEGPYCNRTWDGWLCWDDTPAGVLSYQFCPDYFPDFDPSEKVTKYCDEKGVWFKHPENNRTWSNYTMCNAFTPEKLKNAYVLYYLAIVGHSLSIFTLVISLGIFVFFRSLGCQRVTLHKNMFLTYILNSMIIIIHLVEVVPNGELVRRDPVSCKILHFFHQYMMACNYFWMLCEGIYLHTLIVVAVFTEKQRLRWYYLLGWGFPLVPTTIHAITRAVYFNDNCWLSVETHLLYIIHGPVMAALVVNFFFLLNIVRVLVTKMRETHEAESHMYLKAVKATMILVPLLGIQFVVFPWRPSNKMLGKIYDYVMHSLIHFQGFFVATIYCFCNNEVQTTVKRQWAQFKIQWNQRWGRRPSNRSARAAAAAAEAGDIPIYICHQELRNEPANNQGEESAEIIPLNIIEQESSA
In short: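 Stable hCTR2 clone in RAMP-naïve COS7 cells stimulated 15 min at 37 °C with increasing peptide concentrations in Tyrode buffer pH 7.4 containing IBMX and 0.1% casein. cAMP in lysates measured by AlphaScreen; EC50 from 4-parameter logistic fit.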

[2] = Assessment of chemical stability (RP-HPLC normalized purity); type: physicochemical; details: 7 days, 40° C., Table 1
In short: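 Peptides at 0.2 mg/ml in water adjusted to pH 4, 6, 7.5 or 9, incubated at 40° C for 7 days. Main-peak area-% by RP-HPLC (C8 ammonium formate or C18 TFA gradient, UV 220 nm), normalized to T=0 as 100.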

[3] = system: Sprague Dawley rats; assay: Oral glucose tolerance test (OGTT) in rats; type: in vivo, rat; details: fasted rats, 30 nmol/kg sc 16 hours before oral glucose bolus 2 g/kg
Method: Male Sprague Dawley rats [Crl:CD(SD), weight range 260-280 g upon arrival] were housed in groups of 2 (n=2) or 3 (n=3). The animals were maintained on a 12 h/12 h light/dark cycle. Animals had access ad libitum to a standard chow diet and tap water (domestic quality tap water) during the initial one week acclimatization period.
Fasted rats (fasted for 7 hours) were employed in the test. Rats had previously been randomized into two groups, designated test group and control group, respectively. The total number of animals per group was 10 (n=10).
A single subcutaneous injection of either vehicle (control group; vehicle: 50 mM histidine buffer, pH 7, with 200 mM mannitol) or Compound 7 in vehicle [test group; dose 30 nmol/kg body weight (2 ml/kg)] was subsequently administered to each animal. All rats then received an oral glucose bolus (2 g/kg) 16 hours after vehicle or compound administration. Blood glucose levels in tail blood samples taken 20 min. before glucose administration (time zero, baseline) and then 15 min., 30 min., 60 min., 90 min., 120 min. and 180 min after glucose administration were determined using a glucometer (GlucoSmart Swing™; MSP Bodmann GmbH, Germany).
The data are presented as mean±S.E.M. The two-sided unpaired Student t-test was used for statistical comparison of the test group and the control group.

Compound: CC[C@H](C)[C@@H](C(=O)N[C@@H](CC(C)C)C(=O)N[C@@H](CO)C(=O)N[C@@H](CO)C(=O)N[C@H](C(=O)N[C@@H](CCC(=O)O)C(=O)N[C@H](C(=O)NCC(=O)N[C@@H](CO)C(=O)N[C@@H](CC(N)=O)C(=O)N[C@H](C(=O)N1C[C@H](O)C[C@H]1C(N)=O)[C@@H](C)O)C(C)C)[C@@H](C)O)N(C)C(=O)[C@H](C)NC(=O)CN(C)C(=O)[C@H](Cc1ccccc1)NC(=O)[C@H](CO)NC(=O)[C@H](CO)NC(=O)[C@H](CCCNC(=N)N)NC(=O)[C@H](CCC(N)=O)NC(=O)[C@H](CC(C)C)NC(=O)[C@H](Cc1ccccc1)NC(=O)[C@H](Cc1c[nH]cn1)NC(=O)[C@H](C)NC(=O)[C@H](CC(C)C)NC(=O)[C@H](CCCNC(=N)N)NC(=O)[C@H](CCC(=O)O)NC(=O)[C@@H](NC(=O)[C@H](C)NC(=O)[C@@H]1CSSC[C@H](NC(=O)[C@H](CCCNC(=N)N)NC(=O)CC[C@H](NC(=O)CCCCCCCCCCCCCCCCCCC(=O)O)C(=O)O)C(=O)NCC(=O)N[C@@H]([C@@H](C)O)C(=O)N[C@@H](C)C(=O)N[C@@H]([C@@H](C)O)C(=O)N1)[C@@H](C)O [Compound 7, [19CD]-isoGlu-R-C( )-GTAT-C( )-ATERLAHFLQRSSF-Gly(Me)-A-Ile(Me)-LSSTEVGSNT-Hyp-NH2] ({C20 diacid-γGlu}-RCGTATCATERLAHFLQRSSF[Sar]A[NMeI]LSSTEVGSNT[Hyp]-NH2; disulfide 2-7)
- EC50 [1]: 0.087 nM
- Normalized purity after 7 days, 40° C., pH 4 ([2]; pH 4, 0.2 mg/ml): A (A = >90%)
- Normalized purity after 7 days, 40° C., pH 6 ([2]; pH 6, 0.2 mg/ml): A (A = >90%)
- Normalized purity after 7 days, 40° C., pH 7.5 ([2]; pH 7.5, 0.2 mg/ml): A (A = >90%)
- Normalized purity after 7 days, 40° C., pH 9 ([2]; pH 9, 0.2 mg/ml): A (A = >90%)
- Glucose AUC, t = 15-180 min.; mean ± S.E.M. [3]: 122 ± 29 mmol·min/L
